Test in all cases: inhibition of tumour cell growth, NCI panel, 48 h
In assay [1] the test system is NCI-H23 lung.
For assay [2], the system named is HCT-116 colon.
The test system of assay [3] is NCI-H522 lung.
In assay [4] the test system is CCRF-CEM leukemia.
The subject of assay [5] is HOP-92 NSCLC.
The subject of assay [6] is MALME-3M melanoma.
Assay [7] concerns SW-620 colon.
For assay [8], the system named is SK-MEL-28 melanoma.
Assay [9] deals with OVCAR-3 ovarian.
Assay [10] concerns HOP-62 NSCLC.
The test system of assay [11] is EKVX NSCLC.
Assay [12] relates to OVCAR-8 ovarian.
Assay [13] has as its system RXF 393 renal.
Assay [14] has as its system IGROV1 ovarian.

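Following 48 hours of exposure in 96-well plates, responses at five concentrations were used to interpolate endpoints linearly. Definition used: TGI = concentration required for complete inhibition of growth.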

Take `O=C1c2cccc3cccc(c23)C(=O)N1CCCNCCCCNCCCN1C(=O)c2cccc3cccc(c23)C1=O`: the TGI in [1] came to 0.866 µM; in assay [2], 0.668 µM; in assay [3], 0.0803 µM; in assay [4], 0.205 µM; in [5], 1.59 µM; in [6], 0.74 µM. Moreover, the TGI in assay [7] was 3.54 µM; in assay [8], 0.938 µM; in assay [9] it was 4.58 µM; in assay [10], 2.66 µM; in assay [11], 3.28 µM; in assay [12], 2.24 µM. Besides, the TGI in assay [13] was 0.698 µM; in assay [14], 1.83 µM.
As to `CO[C@H]1O[C@@H]2CO[C@@H](c3ccccc3)O[C@H]2[C@@H]2CC=CCC[C@]12O`, the TGI is above 100 µM in assay [1]; above 100 µM in [2]; 31 µM in assay [3]; above 100 µM in [4]; above 100 µM in assay [5]; 29.3 µM in [6]. The TGI in assay [7], in [8], in assay [9], in assay [10], in [11] and in assay [12] was above 100 µM throughout. Besides, the TGI in assay [13] and in [14] was above 100 µM in each case.
`COC(=O)c1ccccc1/C=C1/Cc2cccc(C)c2C1=O`: the TGI in assay [1], in [2], in assay [3], in assay [4], in assay [5] and in [6] was above 100 µM in each case. Also, the TGI in assay [7], in [8], in assay [9], in assay [10], in assay [11] and in assay [12] was above 100 µM throughout. Moreover, the TGI in assay [13] and in [14] was above 100 µM each time.
On to `C=CCC1C(=O)C(C(=O)OC)N2CCc3c([nH]c4ccccc34)C12` (centres undefined), for which the TGI in assay [1], in assay [2], in assay [3], in assay [4], in assay [5] and in assay [6] was above 100 µM each time. Besides, the TGI in assay [7], in assay [8], in assay [9], in assay [10], in assay [11] and in [12] was above 100 µM throughout. The TGI in assay [13] and in assay [14] was above 100 µM each time.
With `COc1ccc(OC)c([N+](=O)[O-])c1-c1nc2sccn2c1/C=N/N=C(N)N`, the TGI in assay [1], in assay [2], in assay [3], in assay [4], in assay [5] and in assay [6] was above 100 µM each time. Also, the TGI in assay [7] was above 100 µM; in assay [8] it was 68.3 µM; in assay [9], above 100 µM; in assay [10] it was above 100 µM; in [11], above 100 µM; in [12], above 100 µM. The TGI in assay [13] and in assay [14] was above 100 µM in each case.
Regarding `C[n+]1noc(/N=N\[O-])c1-c1cc(-c2c(/N=N\[O-])on[n+]2C)cc(-c2c(/N=N/[O-])on[n+]2C)c1`, the TGI in assay [1], in assay [2], in assay [3], in assay [4], in assay [5] and in [6] was above 100 µM in each case. Besides, the TGI in [7], in [8], in [9], in assay [10], in [11] and in assay [12] was above 100 µM throughout. Besides, the TGI in assay [13] and in [14] was above 100 µM in each case.
In the case of `CC1CC(C)[C@H](O)C([C@H](O)CC2CC(=O)N(C)C(=O)C2)C1` (some centres undefined), the TGI in assay [1], in assay [2], in assay [3], in [4], in [5] and in [6] was above 100 µM in each case. Further, the TGI in [7], in [8], in [9], in assay [10], in assay [11] and in assay [12] was above 100 µM in each case. Besides, the TGI in assay [13] and in assay [14] was above 100 µM in each case.
As to `O[C@@]1(c2cccs2)c2cccc(Cl)c2[C@](O)(c2cccs2)c2cccc(Cl)c21`, the TGI is 39.8 µM in [1]; 27.4 µM in [2]; 55.6 µM in assay [3]; above 100 µM in assay [4]; above 100 µM in assay [5]; 37.2 µM in assay [6]. The TGI in assay [7] is 44.8 µM; in assay [8], 37.8 µM; in assay [9], 37.1 µM; in assay [10] it was above 100 µM; in [11], 44.9 µM; in assay [12], above 100 µM. Besides, the TGI in [13] came out at 38.2 µM; in [14], 33 µM.
As for `CC(CN(C)C)C(=O)c1ccccc1C(=O)O` (centres undefined), the TGI in assay [1] is 89.1 µM; in assay [2], above 100 µM; in assay [3], 36.6 µM; in assay [4], 30.3 µM; in assay [5], above 100 µM; in assay [6] it was 83 µM. In addition, the TGI in [7] is above 100 µM; in assay [8] it was above 100 µM; in [9], 54.1 µM; in assay [10] it was 85.8 µM; in assay [11] it was above 100 µM; in [12], 98.8 µM. For the same molecule, the TGI in assay [13] and in assay [14] was above 100 µM in each case.
As to `C[C@]12CCC3c4ccc(O)cc4CC[C@H]3C1CC(=O)N(N)C2=O` (some centres undefined), the TGI in assay [1], in assay [2], in assay [3], in assay [4], in [5] and in [6] was above 100 µM each time. For the same molecule, the TGI in [7], in assay [8], in assay [9], in [10], in assay [11] and in assay [12] was above 100 µM each time. For the same molecule, the TGI in assay [13] and in assay [14] was above 100 µM each time.
For the molecule `N#Cc1nc(C2CC2)oc1N`, the TGI in assay [1], in assay [2], in assay [3], in assay [4], in assay [5] and in [6] was above 100 µM each time. The TGI in assay [7], in assay [8], in assay [9], in [10], in [11] and in assay [12] was above 100 µM in each case. The TGI in [13] and in assay [14] was above 100 µM each time.

For the origin of these results see PubChem BioAssay (NCI).
